SMILES strings stand for the structures. Active and inactive are the calls of the source.

The target of assay [1] is STE20-like serine/threonine-protein kinase (Homo sapiens, UniProt Q9H2G2). In kind it is functional.
Assay [2] has as its target Dual specificity protein kinase CLK4 (Homo sapiens, UniProt Q9HAZ1). The class given is functional.
Assay [3] concerns the target Glycogen synthase kinase-3 beta (Homo sapiens, UniProt P49841). The class given is functional.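 Also: value comes from a broad kinome profiling panel, with GSK3B as the panel member.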
Assay [4] has as its target Dual specificity protein kinase CLK2 (Homo sapiens, UniProt P49760). The class given is functional.
The target of assay [5] is Tyrosine-protein kinase receptor UFO (Homo sapiens, UniProt P30530). The class given is functional.
In assay [6] the target is Cyclin-dependent kinase 5 (Homo sapiens, UniProt Q00535). In kind it is functional.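 Also: CDK5 measured as one member of a kinase profiling panel.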
Assay [7] addresses Cyclin-dependent kinase 1 (Homo sapiens, UniProt P06493). The class given is functional.
Assay [8] addresses MAP/microtubule affinity-regulating kinase 3 (Homo sapiens, UniProt P27448). In kind it is functional.
The target in assay [9] is Cell division cycle 7-related protein kinase (Homo sapiens, UniProt O00311). The class given is functional.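 Also: value obtained from a kinome-wide kinase panel.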
Assay [10] has as its target ALK tyrosine kinase receptor (Homo sapiens, UniProt Q9UM73). In kind it is functional.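 Also: ALK tested as one member of a kinase panel screen.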
Assay [11] deals with 72 kDa type IV collagenase (Homo sapiens, UniProt P08253). The experiment in a line: Dose Response validation of uHTS RPN11 inhibitor hits using a MMP-2 Fluorescence assay. In kind it is functional.
The target in assay [12] is 26S proteasome non-ATPase regulatory subunit 14 (Homo sapiens, UniProt O00487). The experiment in a line: inhibition of proteasome subunit RPN11 – biochemical, fluorescence polarization, uHTS hits, confirmation (AID 602368). In kind it is functional.
The target of assay [13] is Prothrombin (Bos taurus, UniProt P00735). Nature of the assay: thrombin protease inhibitors – biochemical, fluorescence polarization, uHTS hits, dose response (AID 602369). In kind it is functional.
For assay [14], the target named is T1, DNA repair protein RAD52 homolog (Homo sapiens, UniProt P43351).
T1 sequence (P43351 whole entry): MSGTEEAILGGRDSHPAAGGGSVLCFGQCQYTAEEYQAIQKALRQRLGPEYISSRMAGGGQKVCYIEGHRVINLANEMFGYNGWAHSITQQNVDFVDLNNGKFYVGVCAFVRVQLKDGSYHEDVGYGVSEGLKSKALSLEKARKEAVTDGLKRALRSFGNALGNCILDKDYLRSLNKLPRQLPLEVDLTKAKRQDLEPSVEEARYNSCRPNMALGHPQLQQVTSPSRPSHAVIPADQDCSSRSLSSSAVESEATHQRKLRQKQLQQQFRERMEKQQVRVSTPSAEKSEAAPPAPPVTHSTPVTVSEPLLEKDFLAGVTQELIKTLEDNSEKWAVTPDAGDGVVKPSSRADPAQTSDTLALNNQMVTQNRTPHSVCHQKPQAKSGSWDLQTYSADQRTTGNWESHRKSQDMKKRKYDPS
The class given is functional, biochemical.

For assay [15], the target named is T2, Rac GTPase-activating protein 1 (Homo sapiens, UniProt Q9H0H5).
T2 sequence (Q9H0H5 whole entry): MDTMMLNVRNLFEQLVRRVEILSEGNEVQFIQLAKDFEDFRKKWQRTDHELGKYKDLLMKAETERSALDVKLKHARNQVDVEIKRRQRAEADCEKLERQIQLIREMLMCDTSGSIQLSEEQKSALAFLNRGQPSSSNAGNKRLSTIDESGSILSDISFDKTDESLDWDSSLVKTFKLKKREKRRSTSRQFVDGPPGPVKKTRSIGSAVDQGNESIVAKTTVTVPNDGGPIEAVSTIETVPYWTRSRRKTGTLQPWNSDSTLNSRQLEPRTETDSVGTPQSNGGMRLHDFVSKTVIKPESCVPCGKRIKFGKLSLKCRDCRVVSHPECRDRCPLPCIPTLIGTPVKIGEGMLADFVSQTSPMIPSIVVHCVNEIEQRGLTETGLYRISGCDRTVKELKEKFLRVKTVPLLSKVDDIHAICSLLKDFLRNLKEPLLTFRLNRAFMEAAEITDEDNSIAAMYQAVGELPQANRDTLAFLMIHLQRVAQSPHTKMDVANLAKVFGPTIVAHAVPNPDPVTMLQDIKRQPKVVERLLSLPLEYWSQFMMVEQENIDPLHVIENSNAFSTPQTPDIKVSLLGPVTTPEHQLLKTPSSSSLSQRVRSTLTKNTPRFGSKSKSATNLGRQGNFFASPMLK
Nature of the assay: blockers of MgcRacGAP-driven Rac1 GTP hydrolysis – biochemical, ADP Hunter fluorescence, primary and confirmatory, confirmation (AID 624330). The class given is functional.

Assay [16] is described as follows: THP-1 cell cytotoxicity, cytotoxicity control, set 4 (AID 504911). In kind it is functional. As to conditions: Mycobacterium tuberculosis.
Assay [17] concerns the target DNA (cytosine-5)-methyltransferase 1 (Homo sapiens, UniProt P26358). The experiment in a line: inhibition of DNA methylation by DNMT1 – biochemical, fluorescent molecular beacon, confirmation (AID 602386). In kind it is functional.
Assay [18] is described as follows: A Cell Based Secondary Assay to Explore Cytotoxicity in THP-1 Cells of Compounds that Modulate Mycobacterium tuberculosis in Media Containing Glycerol versus Media without Glycerol (2). The class given is functional.
The nature of assay [19]: THP-1 cell cytotoxicity, dose response, cytotoxicity control, set 3 (AID 504852). The class given is functional. The settings on record: Mycobacterium tuberculosis.
The target in assay [20] is cAMP-dependent protein kinase catalytic subunit alpha (Homo sapiens, UniProt P17612). In kind it is functional.
Assay [21] deals with Mitogen-activated protein kinase kinase kinase kinase 4 (Homo sapiens, UniProt O95819). The class given is functional.
Assay [22] has as its target Homeodomain-interacting protein kinase 2 (Homo sapiens, UniProt Q9H2X6). The class given is functional.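 Also: measured within a kinome-wide kinase profiling panel, HIPK2 being one panel member.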
Assay [23] deals with Serine/threonine-protein kinase pim-1 (Homo sapiens, UniProt P11309). The class given is functional.
Assay [24] addresses Interleukin-1 receptor-associated kinase 4 (Homo sapiens, UniProt Q9NWZ3). The class given is functional.
The target in assay [25] is Hexokinase-1 (Homo sapiens, UniProt P19367). The experiment in a line: hexokinase 1 activity inhibitors, potency – biochemical, set 2, resazurin fluorescence coupled readout, selectivity assay for HKDC1 inhibitor project, SAR follow-up (AID 588356). The class given is functional.
In assay [26] the target is T3, Hexokinase HKDC1 (Homo sapiens, UniProt Q2TB90).
T3 sequence (Q2TB90 whole entry): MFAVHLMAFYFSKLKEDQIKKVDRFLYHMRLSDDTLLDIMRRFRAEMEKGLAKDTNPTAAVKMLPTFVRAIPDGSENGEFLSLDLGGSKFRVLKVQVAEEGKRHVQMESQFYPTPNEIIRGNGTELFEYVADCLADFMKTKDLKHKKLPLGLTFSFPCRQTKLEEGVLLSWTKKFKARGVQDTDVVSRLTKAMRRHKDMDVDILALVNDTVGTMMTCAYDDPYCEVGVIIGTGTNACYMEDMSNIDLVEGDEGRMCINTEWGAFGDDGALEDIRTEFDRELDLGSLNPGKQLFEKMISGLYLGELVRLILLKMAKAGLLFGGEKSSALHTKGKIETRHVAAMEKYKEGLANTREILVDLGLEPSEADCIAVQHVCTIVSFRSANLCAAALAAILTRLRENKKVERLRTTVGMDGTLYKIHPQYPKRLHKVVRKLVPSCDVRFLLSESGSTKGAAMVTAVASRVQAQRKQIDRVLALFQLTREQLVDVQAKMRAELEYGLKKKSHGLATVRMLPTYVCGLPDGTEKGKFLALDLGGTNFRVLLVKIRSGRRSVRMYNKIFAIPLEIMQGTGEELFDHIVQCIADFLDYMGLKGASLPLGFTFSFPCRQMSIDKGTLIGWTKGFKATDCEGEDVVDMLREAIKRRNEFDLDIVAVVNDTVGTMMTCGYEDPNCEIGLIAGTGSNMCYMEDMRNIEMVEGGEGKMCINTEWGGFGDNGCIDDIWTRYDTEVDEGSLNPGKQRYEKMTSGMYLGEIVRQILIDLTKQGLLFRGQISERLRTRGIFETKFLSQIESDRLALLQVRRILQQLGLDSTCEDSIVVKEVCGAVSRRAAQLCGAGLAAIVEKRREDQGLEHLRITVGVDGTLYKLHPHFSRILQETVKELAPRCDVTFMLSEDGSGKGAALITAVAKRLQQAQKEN
The experiment in a line: SAR analysis of small molecule inhibitors of hexokinase domain containing I (HKDC1) - Set 3. [Related pubchem assays (depositor defined):AID493160, AID493190]. The class given is functional.

The target of assay [27] is T3, Hexokinase HKDC1. Nature of the assay: analog inhibition of human HKDC1 activity – biochemical, set 2, SAR follow-up (AID 588355). In kind it is functional.
Assay [28] concerns the target Misshapen-like kinase 1 (Homo sapiens, UniProt Q8N4C8). In kind it is functional.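 Also: kinome panel screen with MINK as the panel member.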
Assay [29] addresses T4, High affinity choline transporter 1 (Homo sapiens, UniProt Q9GZV3).
T4 sequence (Q9GZV3 whole entry): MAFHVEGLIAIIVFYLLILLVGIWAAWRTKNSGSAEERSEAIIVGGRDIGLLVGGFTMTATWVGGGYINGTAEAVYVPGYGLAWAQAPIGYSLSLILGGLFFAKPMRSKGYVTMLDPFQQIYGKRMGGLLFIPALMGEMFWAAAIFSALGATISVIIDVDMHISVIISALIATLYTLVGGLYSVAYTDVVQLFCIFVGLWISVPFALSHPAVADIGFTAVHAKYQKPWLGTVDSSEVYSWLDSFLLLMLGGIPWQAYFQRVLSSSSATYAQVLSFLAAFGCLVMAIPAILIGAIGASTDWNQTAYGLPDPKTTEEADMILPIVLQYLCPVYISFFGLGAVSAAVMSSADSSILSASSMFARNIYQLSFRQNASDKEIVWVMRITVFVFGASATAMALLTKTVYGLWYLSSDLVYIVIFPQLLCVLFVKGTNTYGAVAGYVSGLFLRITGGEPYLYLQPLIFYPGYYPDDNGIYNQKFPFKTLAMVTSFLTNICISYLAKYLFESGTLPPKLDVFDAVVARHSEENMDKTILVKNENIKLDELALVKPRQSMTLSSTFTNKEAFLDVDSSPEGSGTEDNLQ
Nature of the assay: human choline transporter potentiators, potency – cell-based, 10-point CRC, membrane potential dye, dose response (AID 602376). The class given is functional.

Sequence of Glycogen synthase kinase-3 beta (P49841 whole entry): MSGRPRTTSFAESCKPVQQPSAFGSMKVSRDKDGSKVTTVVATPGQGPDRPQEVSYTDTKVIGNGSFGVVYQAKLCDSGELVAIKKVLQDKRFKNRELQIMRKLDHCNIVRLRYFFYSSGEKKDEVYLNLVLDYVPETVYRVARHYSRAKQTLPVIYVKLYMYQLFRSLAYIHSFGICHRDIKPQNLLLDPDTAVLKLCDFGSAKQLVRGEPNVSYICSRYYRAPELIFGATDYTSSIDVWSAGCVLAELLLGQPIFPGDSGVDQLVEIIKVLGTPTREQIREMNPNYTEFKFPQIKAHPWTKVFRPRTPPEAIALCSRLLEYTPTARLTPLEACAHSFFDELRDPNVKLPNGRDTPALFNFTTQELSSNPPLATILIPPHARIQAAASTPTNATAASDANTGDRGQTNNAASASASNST
Sequence of Mitogen-activated protein kinase kinase kinase kinase 4 (O95819 whole entry): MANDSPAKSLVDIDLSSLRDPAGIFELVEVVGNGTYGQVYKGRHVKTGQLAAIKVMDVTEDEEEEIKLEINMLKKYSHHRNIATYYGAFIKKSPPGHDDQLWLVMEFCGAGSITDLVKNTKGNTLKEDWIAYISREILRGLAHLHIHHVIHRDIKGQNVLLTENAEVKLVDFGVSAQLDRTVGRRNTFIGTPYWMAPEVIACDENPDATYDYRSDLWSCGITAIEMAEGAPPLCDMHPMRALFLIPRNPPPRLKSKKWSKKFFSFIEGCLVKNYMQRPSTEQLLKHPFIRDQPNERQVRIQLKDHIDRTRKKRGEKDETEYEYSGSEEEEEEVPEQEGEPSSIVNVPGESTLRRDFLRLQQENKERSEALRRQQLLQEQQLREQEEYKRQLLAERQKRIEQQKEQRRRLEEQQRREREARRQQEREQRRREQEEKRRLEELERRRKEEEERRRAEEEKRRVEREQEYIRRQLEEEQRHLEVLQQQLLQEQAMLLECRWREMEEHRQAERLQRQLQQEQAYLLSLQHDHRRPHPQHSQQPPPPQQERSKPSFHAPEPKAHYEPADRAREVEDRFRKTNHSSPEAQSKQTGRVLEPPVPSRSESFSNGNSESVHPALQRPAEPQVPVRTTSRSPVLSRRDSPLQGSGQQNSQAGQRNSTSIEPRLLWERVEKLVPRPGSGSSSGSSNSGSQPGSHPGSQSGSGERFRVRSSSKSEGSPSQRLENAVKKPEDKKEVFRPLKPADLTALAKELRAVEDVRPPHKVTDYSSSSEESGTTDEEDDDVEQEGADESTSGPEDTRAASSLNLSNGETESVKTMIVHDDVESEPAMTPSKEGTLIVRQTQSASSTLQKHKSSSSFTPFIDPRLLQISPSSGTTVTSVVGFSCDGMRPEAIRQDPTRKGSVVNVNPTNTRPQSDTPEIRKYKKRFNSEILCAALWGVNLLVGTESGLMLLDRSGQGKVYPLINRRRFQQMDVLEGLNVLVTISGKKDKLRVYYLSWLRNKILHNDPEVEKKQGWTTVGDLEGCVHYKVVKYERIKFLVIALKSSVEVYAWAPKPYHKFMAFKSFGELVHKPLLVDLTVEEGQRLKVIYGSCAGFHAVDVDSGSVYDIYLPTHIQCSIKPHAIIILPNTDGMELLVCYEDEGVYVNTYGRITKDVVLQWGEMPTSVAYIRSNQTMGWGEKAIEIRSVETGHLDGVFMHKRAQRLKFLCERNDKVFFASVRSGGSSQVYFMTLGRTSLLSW
Sequence of Cell division cycle 7-related protein kinase (O00311 whole entry): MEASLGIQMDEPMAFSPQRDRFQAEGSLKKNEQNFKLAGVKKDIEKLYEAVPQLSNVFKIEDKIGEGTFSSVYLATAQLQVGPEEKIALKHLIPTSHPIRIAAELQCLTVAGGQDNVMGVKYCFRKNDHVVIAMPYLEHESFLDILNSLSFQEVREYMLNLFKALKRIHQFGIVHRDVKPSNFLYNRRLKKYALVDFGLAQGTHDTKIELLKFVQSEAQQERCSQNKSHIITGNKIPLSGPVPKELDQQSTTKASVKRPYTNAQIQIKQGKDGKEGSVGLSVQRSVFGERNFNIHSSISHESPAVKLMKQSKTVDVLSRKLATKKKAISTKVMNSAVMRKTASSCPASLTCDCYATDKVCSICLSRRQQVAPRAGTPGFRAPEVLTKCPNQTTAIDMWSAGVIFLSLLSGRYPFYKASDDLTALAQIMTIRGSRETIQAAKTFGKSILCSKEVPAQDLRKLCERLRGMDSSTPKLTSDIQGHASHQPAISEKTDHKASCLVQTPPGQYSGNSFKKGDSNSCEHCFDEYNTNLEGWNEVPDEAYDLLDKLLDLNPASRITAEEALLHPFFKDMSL
Sequence of Dual specificity protein kinase CLK4 (Q9HAZ1 whole entry): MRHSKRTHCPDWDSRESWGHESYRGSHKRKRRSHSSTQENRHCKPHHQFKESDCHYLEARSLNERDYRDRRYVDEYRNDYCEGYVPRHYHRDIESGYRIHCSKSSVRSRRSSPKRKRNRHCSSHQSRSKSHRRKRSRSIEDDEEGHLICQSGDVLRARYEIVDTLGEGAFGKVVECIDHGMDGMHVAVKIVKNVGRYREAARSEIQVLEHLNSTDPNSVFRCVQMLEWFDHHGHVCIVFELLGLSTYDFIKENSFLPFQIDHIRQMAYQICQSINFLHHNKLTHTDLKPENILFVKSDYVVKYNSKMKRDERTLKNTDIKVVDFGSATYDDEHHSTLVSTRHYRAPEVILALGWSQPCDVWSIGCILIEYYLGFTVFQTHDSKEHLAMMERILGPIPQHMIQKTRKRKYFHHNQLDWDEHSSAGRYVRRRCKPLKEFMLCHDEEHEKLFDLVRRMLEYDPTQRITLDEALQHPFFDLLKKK
Sequence of MAP/microtubule affinity-regulating kinase 3 (P27448 whole entry): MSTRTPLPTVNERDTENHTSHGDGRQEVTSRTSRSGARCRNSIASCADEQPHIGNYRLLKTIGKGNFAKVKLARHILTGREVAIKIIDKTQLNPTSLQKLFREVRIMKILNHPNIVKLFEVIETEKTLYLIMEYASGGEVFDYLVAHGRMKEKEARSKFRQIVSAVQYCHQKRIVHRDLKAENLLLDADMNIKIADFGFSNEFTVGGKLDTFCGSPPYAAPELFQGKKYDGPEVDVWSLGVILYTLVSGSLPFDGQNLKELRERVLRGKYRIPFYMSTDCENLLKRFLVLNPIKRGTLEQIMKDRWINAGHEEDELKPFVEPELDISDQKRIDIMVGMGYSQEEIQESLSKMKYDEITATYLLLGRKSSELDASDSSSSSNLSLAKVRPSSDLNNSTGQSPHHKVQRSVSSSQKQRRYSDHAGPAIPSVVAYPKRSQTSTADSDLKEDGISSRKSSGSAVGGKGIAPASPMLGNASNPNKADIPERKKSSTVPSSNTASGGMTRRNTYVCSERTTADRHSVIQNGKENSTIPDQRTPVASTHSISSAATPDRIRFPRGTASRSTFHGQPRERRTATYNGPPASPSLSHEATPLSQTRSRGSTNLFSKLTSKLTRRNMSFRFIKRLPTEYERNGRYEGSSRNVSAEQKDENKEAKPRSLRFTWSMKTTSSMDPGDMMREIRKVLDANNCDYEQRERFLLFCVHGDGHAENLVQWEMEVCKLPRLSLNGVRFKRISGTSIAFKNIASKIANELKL
Sequence of ALK tyrosine kinase receptor (Q9UM73 whole entry): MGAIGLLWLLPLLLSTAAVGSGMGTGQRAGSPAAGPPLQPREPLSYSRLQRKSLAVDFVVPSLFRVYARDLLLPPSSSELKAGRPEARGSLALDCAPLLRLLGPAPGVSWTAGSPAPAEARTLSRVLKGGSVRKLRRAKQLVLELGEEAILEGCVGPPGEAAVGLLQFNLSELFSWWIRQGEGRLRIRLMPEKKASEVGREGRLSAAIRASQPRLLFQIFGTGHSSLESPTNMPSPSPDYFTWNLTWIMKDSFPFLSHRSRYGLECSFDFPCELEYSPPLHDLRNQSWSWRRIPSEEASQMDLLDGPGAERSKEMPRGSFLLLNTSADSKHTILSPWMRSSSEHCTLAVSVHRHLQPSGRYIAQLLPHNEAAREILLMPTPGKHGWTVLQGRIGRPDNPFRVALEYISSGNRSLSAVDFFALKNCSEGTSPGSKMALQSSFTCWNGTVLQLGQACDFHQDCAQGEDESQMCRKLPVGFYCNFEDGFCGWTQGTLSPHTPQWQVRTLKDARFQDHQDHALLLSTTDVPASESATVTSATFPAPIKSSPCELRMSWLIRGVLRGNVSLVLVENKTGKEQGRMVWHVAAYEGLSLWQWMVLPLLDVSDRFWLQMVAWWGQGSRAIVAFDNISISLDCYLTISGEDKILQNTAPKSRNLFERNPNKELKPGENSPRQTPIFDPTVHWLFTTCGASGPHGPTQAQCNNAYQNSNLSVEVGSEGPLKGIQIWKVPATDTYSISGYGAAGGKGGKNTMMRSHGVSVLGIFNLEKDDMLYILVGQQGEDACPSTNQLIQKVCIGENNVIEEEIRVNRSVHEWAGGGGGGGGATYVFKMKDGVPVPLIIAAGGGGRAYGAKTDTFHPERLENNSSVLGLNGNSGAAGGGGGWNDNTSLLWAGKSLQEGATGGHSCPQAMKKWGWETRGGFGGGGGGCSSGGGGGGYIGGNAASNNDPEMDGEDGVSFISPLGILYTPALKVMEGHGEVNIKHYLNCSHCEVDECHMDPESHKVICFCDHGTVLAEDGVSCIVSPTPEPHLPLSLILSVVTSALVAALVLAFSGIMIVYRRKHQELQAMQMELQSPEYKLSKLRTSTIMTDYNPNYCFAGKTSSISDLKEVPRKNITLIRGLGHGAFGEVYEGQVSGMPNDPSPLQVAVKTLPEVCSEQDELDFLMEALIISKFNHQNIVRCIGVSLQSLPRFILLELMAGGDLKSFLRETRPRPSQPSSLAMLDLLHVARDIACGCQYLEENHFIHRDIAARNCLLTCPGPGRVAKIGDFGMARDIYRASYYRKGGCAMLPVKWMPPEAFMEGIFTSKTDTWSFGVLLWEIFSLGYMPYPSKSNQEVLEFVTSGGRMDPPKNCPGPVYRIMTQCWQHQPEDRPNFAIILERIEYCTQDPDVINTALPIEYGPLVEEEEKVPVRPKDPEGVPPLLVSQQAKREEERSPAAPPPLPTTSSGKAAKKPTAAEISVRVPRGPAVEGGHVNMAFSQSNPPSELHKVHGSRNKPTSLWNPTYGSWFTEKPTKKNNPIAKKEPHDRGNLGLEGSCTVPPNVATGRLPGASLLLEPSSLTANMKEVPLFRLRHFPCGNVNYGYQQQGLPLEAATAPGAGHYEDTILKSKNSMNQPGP

As for `Cc1n[nH]c2c1C(c1ccccc1Br)C(C#N)=C(N)O2` (stereo not drawn), the Ki in [1] is 1.58 µM (active); in assay [2] it was 5.01 µM (active); in assay [3] it was 3.98 µM (active); in assay [4], 3.16 µM (active); in [5], 2 µM (active); in assay [6], 3.16 µM (active). Besides, the Ki is 5.01 µM (active) in [7] and 2 µM (active) in assay [8].

Turning to `Oc1cccc(-c2c[nH]c3ncccc23)c1`, the Ki in [9] is 0.316 µM (active); in assay [10] it was > 3.16 µM (inactive).

With `COc1ccc(CCNc2ccc(C(CC(N)=O)NC(=O)Cc3cccc4ccccc34)cc2[N+](=O)[O-])cc1` (stereo not drawn), the IC50 in assay [11] was > 100 µM (inactive); in assay [12] it was 25.8 µM (active); in [13], 40.1 µM (active).

Turning to `CC[N+](C)(CC)CCCCOc1ccc2c(c1)C(=O)c1cc(OCCCC[N+](C)(CC)CC)ccc1-2`, in assay [14], the AC50 is 0.574 µM (active). In addition, the values for the IC50 in assay [15] and in assay [17] were 180 µM (active) and 1.24 µM (active), respectively. In addition, the results for the CC50 in [16], in assay [18] and in [19] were 10.5 µM (active), 38.8 µM (active) and 17.1 µM (active), respectively.

As to `O=C1Nc2ccccc2Nc2cc(-c3ccncc3)ccc21`, the Ki is 0.0398 µM (active) in assay [2]; 0.398 µM (active) in assay [3]; 0.00794 µM (active) in assay [9]; 1.26 µM (active) in [20]; 1.26 µM (active) in [21]; > 3.16 µM (inactive) in assay [22]. In addition, the Ki in assay [23] is > 10 µM (inactive); in [24] it was 2.51 µM (active).

As for `CC(=O)NC1C(=O)N(CCN2CCOCC2)c2ccc(Br)cc21` (stereo not drawn), the IC50 in [25], in assay [26] and in assay [27] was > 80 µM (inactive) throughout.

Regarding `CC(C)Oc1ccc(-c2noc(-c3ccc(CN4CC(C(=O)O)C4)cc3)n2)cc1Cl`, the Ki in assay [21] is 5.01 µM (active); in [28] it was 6.31 µM (active).

In the case of `CC(NCc1cc(Br)ccc1OCC(N)=O)C12CC3CC(CC(C3)C1)C2` (stereo not drawn), in assay [29], the EC50 was 13.8 µM (active).

Values taken from ChEMBL document CHEMBL1201862, “PubChem BioAssay data set” (2004).
